Entries after “also recorded” stand apart in the source; their conditions may differ.
Test: Glucose tolerance test
Type: in vivo, mice
Details: for response to glucose challenge / glucose intolerance: WT mice exposed to stress and high-fat diet, FIG. 18A
Method: Glucose tolerance test: After an overnight 17 h fast, unanesthetized mice are injected i.p. with a dose of 1.5 g of 50% glucose solution per kg of body weight. Blood samples are obtained from the tail vein 30 min prior to the glucose challenge and then again at 0, 30, 60, 90 min after the glucose challenge. Blood glucose concentrations are measured with an Elite XL (Bayer) portable glucose meter.
1. Cell culture: 3T3-L1 preadipocyte cells, (gift from Dr. Lane,^34) were cultured in DMEM high glucose media with glutamine, 10% calf sera (Gemini Bioproducts), d-Biotin (8 μg/ml) and Pantothenate (8 μg/ml) (Sigma). SK-N-BE(2) neuroblastoma cells (ATCC) were cultured in EMEM/F12K with 10% fetal bovine sera (FBS). HMVEC endothelial cells (Cambrex) were cultured in endothelial cell growth media (Cambrex). All media was supplemented with 100 units/ml penicillin, 100 μg/ml streptomycin and […] amphotericin. 2. Proliferation assay: Cells were plated onto 96-well dishes, growth-arrested in serum-free media for 24 h, and then were treated with the desired factors for 24 h in the culture media supplemented with 0.25% FBS; 4 hr after treatment 0.5 μCi [^3H] thymidine was added to each well. After 24 h, cells were harvested in a 96-well harvester (Tomtec) and counted in a Betaplate Liquid Scintillation Counter (Wallac). 3. Co-culture: For mitogenic assay and expression studies, co-culture was performed in a Costar Transwell system. Cells were plated on 6-well plates or inserts with 0.4 μm Polyester membranes. At 30% confluence, the inserts were combined with wells containing other cells. […] After 48 hr, the cells were counted with a Beckman Coulter Counter. […] The results were analyzed using software provided by BioRad and expression levels calculated by the comparative CT method using β-actin as an endogenous reference gene, according to the Applied Biosystems' ABI PRISM 7700 User Bulletin #2. […] The density of TUNEL positive cells will be measured using NIH ImageJ software (using a plugin written by Wayne Rasband). […]

N=C(N)NCCC[C@H](NC(=O)CC1(CC(=O)N2CCN(C3c4ccccc4NC(=O)c4ccccc43)CC2)CCCC1)C(=O)NCCn1c(=O)n(-c2ccccc2)n(-c2ccccc2)c1=O (stereo partly drawn) [BIIE0246]
response to glucose challenge / glucose intolerance (listed as Y2R antagonist): resolved | response to glucose challenge / glucose intolerance (listed as Y2 antagonist): normalized glucose intolerance | response to glucose challenge (ob/ob mice, FIG. 18B, listed as Y2R antagonist): near normal response to the challenge; also recorded: resolved

Reference: patent US20090317376A1, “Compositions And Methods For Lipo Modeling” (Georgetown University MEDICAL SCHOOL, priority 2005, published 2009)
